# US10894788B2, “Inhibitors of cyclin-dependent kinases” (Kinnate Biopharma Inc., priority 2018, dated 2021)
# Biological target: CDK12 (Homo sapiens (Human), UniProt Q9NYV4)
# Experiment: Radiometric protein kinase assay (33PanQinase Activity Assay), Assay Condition B (thiol-free conditions)
# Format: biochemical
# Conditions: thiol-free conditions (1 mM TCEP, glutathione removed)
# Description: Example 2—Assay Condition B (Thiol-Free Conditions)
# The IC50 profile of compounds was determined using one protein kinase in a customized, thiol free assay. […] Prior to testing, the 1×10^−03 M stock solutions in column 2 of the master plates were subjected to a serial, semi-logarithmic dilution using 100% DMSO as a solvent. […] Column 1 and 7 were filled with 100% DMSO as controls. Subsequently, 2×10 microliter from each well of the serial diluted copy plates were aliquoted with a 96 channel pipettor into two identical sets of “compound dilution plates”. All plates were barcoded for automated identification and tracking purposes. […] All compounds were stored as powder until being solubilized in DMSO. Solubilized compounds were stored as 1×10^−02 M/100% DMSO stock solutions. Prior to the assay process, 90 microliters of H2O were added to each well of a set of compound dilution plates. To minimize potential precipitation, the H2O was added to each plate only a few minutes before the transfer of the compound solutions into the assay plates. Each plate was shaken thoroughly, resulting in compound dilution plates with a final of 10% DMSO. For each assay, 5 microliters of solution from each well of the compound dilution plates/10% DMSO were transferred into the assay plate. The final volume of the assay was 50 μl. All compounds were tested at 10 final assay concentrations in the range from 1×10^−05 M to 3×10^−10 M, in singlicate. The final DMSO concentration in the reaction cocktails was 1% in all cases. A radiometric protein kinase assay (33PanQinase® Activity Assay) was used for measuring the kinase activity of the protein kinase. All kinase assays were performed in 96-well FlashPlates™ from PerkinElmer (Boston, Mass., USA) in a 50 microliter reaction volume. The reaction cocktail was pipetted in four steps in the following order: 20 microliter of assay buffer (standard buffer)·5 microliter of ATP solution (in H2O)·5 microliter of test compound (in 10% DMSO)·20 microliter enzyme/substrate mix. […] For all experiments labeled as “Thiol-free”, all glutathione was exchanged from protein preparations so as to be removed from the assay and final buffer conditions contained no thiol-containing reagents. This was done so there would be no interference with the key cysteines in the proteins of interest.
# For data analysis, the median value of the counts in column 1 (n=8) of each assay plate was defined as “low control”. This value reflects unspecific binding of radioactivity to the plate in the absence of a protein kinase but in the presence of the substrate. The median value of the counts in column 7 of each assay plate (n=8) was taken as the “high control”, i.e. full activity in the absence of any inhibitor. The difference between high and low control was taken as 100% activity. As part of the data evaluation the low control value from a particular plate was subtracted from the high control value as well as from all 80 “compound values” of the corresponding plate. The residual activity (in %) for each well of a particular plate was calculated by using the following formula: Res. Activity (%)=100×[(cpm of compound−low control)/(high control−low control)]
# The residual activities for each concentration and the compound IC50 values were calculated using Quattro Workflow V3.1.1 (Quattro Research GmbH, Munich, Germany; www.quattro-research.com). […] The fitting method used was a least-squares fit. As a parameter for assay quality, the Z′-factor (Zhang et al., J. Biomol. Screen. 2: 67-73, 1999) for the low and high controls of each assay plate (n=8) was used. ProQinase's criterion for repetition of an assay plate is a Z′-factor below 0.4 (Iversen et al., J. Biomol. Screen. 3: 247-252, 2006).
# CDK12, sequence (Q9NYV4 whole entry): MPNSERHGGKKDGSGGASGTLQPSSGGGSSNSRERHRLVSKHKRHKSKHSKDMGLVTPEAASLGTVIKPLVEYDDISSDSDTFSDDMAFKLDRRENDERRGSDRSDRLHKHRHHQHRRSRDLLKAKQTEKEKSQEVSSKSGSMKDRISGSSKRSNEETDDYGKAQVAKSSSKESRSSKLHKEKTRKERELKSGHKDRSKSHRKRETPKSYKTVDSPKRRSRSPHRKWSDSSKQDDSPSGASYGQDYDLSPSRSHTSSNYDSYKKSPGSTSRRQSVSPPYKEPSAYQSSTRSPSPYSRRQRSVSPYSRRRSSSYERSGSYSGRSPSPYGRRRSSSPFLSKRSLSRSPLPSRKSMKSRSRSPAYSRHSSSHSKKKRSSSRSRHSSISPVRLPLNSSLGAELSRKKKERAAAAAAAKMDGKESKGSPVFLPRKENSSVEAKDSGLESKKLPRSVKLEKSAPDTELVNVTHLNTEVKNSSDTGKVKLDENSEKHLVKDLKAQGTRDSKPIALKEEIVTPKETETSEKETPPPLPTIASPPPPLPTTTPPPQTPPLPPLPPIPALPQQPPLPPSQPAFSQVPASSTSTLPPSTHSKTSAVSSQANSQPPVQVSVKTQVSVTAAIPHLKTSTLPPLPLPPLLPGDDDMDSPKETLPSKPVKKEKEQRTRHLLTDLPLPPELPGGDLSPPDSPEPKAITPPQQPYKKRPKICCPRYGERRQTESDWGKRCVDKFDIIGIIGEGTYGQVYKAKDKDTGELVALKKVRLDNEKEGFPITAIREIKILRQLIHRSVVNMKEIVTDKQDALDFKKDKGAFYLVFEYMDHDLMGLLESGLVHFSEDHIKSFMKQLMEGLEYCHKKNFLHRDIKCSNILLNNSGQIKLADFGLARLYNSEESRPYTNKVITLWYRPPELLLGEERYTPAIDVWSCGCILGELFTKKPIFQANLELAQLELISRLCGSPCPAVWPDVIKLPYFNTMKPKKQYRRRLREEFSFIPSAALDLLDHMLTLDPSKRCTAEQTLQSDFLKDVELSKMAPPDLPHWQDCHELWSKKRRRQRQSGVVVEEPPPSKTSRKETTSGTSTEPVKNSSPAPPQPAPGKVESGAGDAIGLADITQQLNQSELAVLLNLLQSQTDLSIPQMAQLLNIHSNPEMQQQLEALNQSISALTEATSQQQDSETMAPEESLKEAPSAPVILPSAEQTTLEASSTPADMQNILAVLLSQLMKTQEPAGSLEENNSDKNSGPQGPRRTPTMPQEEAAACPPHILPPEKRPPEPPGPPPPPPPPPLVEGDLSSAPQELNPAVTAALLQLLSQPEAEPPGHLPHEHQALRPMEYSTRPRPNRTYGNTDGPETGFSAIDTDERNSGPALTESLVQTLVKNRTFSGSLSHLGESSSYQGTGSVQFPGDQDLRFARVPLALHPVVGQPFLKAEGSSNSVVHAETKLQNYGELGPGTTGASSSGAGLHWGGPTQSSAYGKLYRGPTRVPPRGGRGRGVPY
# CDK12, sequence (O75909 whole entry partner): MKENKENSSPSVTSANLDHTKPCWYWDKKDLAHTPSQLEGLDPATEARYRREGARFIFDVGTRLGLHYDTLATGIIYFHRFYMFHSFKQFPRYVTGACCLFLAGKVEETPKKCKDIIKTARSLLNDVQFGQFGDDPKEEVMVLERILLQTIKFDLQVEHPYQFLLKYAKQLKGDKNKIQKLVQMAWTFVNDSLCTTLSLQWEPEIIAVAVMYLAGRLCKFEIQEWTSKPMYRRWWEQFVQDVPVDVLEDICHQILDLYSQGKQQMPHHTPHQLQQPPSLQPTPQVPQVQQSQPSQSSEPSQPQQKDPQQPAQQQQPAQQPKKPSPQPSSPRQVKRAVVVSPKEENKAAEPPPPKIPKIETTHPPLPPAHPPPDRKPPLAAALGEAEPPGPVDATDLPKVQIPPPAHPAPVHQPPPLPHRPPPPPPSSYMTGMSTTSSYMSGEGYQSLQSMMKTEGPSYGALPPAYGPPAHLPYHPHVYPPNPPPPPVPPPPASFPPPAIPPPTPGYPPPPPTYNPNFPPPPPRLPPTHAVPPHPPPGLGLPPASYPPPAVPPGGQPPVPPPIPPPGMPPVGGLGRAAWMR
row,Structure (SMILES),IC50
1,"C=CC(=O)Nc1ccc(C(=O)N2CC[C@@H](Nc3ncc(Cl)c(OC)n3)C2)cc1OC [Example 1, (R)-N-(4-(3-((5-chloro-4-methoxypyrimidin-2-yl)amino)pyrrolidine-1-carbonyl)-2-methoxyphenyl)acrylamide]",< 100 nM
2,"C=CC(=O)N1CCOc2cc(C(=O)N3CC[C@@H](Nc4ncc(Cl)c(OC)n4)C3)ccc21 [Example 2, (R)-1-(7-(3-((5-chloro-4-methoxypyrimidin-2-yl)amino)pyrrolidine-1-carbonyl)-2H-benzo[b][1,4]oxazin-4(3H)-yl)prop-2-en-1-one]",100 to 1000 nM
3,"C=CC(=O)Nc1ccc(C(=O)N2CC[C@@H](Nc3ncc(Cl)c(OC)n3)C2)cc1Cl [Example 5, (R)-N-(2-chloro-4-(3-((5-chloro-4-methoxypyrimidin-2-yl)amino)pyrrolidine-1-carbonyl)phenyl)acrylamide]",< 100 nM
4,"C=CC(=O)Nc1ccc(C(=O)N2CC[C@@H](Nc3ncc(Cl)cn3)C2)cc1Cl [Example 6, (R)-N-(2-chloro-4-(3-((5-chloropyrimidin-2-yl)amino)pyrrolidine-1-carbonyl)phenyl)acrylamide]",< 100 nM
5,"C=CC(=O)Nc1nc(C(=O)N2CC[C@@H](Nc3ncc(Cl)c(OC)n3)C2)cs1 [Example 7, (R)-N-(4-(3-((5-chloro-4-methoxypyrimidin-2-yl)amino)pyrrolidine-1-carbonyl)thiazol-2-yl)acrylamide]",< 100 nM
6,"C=CC(=O)Nc1ncc(C(=O)N2CC[C@@H](Nc3ncc(Cl)c(OC)n3)C2)s1 [Example 8, (R)—N-(5-(3-((5-chloro-4-methoxypyrimidin-2-yl)amino)pyrrolidine-1-carbonyl)thiazol-2-yl)acrylamide]",100 to 1000 nM
7,"C=CC(=O)Nc1ccc(C(=O)N2CC[C@@H](Nc3ncc(Cl)c(OC)n3)C2)cc1N1CCN(C)CC1 [Example 9, (R)-N-(4-(3-((5-chloro-4-methoxypyrimidin-2-yl)amino)pyrrolidine-1-carbonyl)-2-(4-methylpiperazin-1-yl)phenyl)acrylamide]",< 100 nM
8,"C=CC(=O)Nc1ccc(C(=O)N2CC[C@@H](Nc3ncc(Cl)c(OC)n3)C2)cc1N1CCOCC1 [Example 10, (R)—N-(4-(3-((5-chloro-4-methoxypyrimidin-2-yl)amino)pyrrolidine-1-carbonyl)-2-morpholinophenyl)acrylamide]",< 100 nM
9,"C=CC(=O)Nc1ccc(C(=O)N2CC[C@@H](Nc3ncc(Cl)c(OC)n3)C2)cc1N1CCCCC1 [Example 11, (R)—N-(4-(3-((5-chloro-4-methoxypyrimidin-2-yl)amino)pyrrolidine-1-carbonyl)-2-(piperidin-1-yl)phenyl)acrylamide]",< 100 nM
10,"CCC(=O)Nc1ccc(C(=O)N2CC[C@@H](Nc3ncc(F)c(OC4CC4)n3)C2)cc1 [Example 13, (R)—N-(4-(3-((4-cyclopropoxy-5-fluoropyrimidin-2-yl)amino)pyrrolidine-1-carbonyl)phenyl)propionamide]",1000 to 10000 nM
11,"CCC(=O)Nc1ccc(C(=O)N2CC[C@@H](Nc3ncc(Cl)c(OCC(F)(F)F)n3)C2)cc1 [Example 18, (R)—N-(4-(3-((5-chloro-4-(2,2,2-trifluoroethoxy)pyrimidin-2-yl)amino)pyrrolidine-1-carbonyl)phenyl)propionamide]",100 to 1000 nM
12,"C=CC(=O)N1CCc2cc(C(=O)N3CC[C@@H](Nc4ncc(Cl)c(OC)n4)C3)ccc21 [Example 27, (R)-1-(5-(3-((5-chloro-4-methoxypyrimidin-2-yl)amino)pyrrolidine-1-carbonyl)indolin-1-yl)prop-2-en-1-one]",< 100 nM
13,"C=CC(=O)N1CCc2cc(C(=O)N3CC[C@@H](Nc4ncc(Cl)cn4)C3)ccc21 [Example 30, (R)-1-(5-(3-((5-chloropyrimidin-2-yl)amino)pyrrolidine-1-carbonyl)indolin-1-yl)prop-2-en-1-one]",< 100 nM
14,"C=CC(=O)Nc1ccc(C(=O)N2CC[C@@H](Nc3ncc(Cl)cn3)C2)cc1OC [Example 31, (R)—N-(4-(3-((5-chloropyrimidin-2-yl)amino)pyrrolidine-1-carbonyl)-2-methoxyphenyl)acrylamide]",< 100 nM
15,"C=CC(=O)Nc1ccc(C(=O)N2CC[C@@H](Nc3ncc(Cl)cn3)C2)c(C)c1 [Example 32, (R)—N-(4-(3-((5-chloropyrimidin-2-yl)amino)pyrrolidine-1-carbonyl)-3-methylphenyl)acrylamide]",100 to 1000 nM
16,"C=CC(=O)Nc1c(C)cc(C(=O)N2CC[C@@H](Nc3ncc(Cl)cn3)C2)cc1C [Example 33, (R)—N-(4-(3-((5-chloropyrimidin-2-yl)amino)pyrrolidine-1-carbonyl)-2,6-dimethylphenyl)acrylamide]",1000 to 10000 nM

# Second part, the compound after the results:
row,IC50,Structure (SMILES)
1,100 to 1000 nM,"C=CC(=O)Nc1ccc(C(=O)N2CC[C@@H](Nc3nccc(OC4CCCC4)n3)C2)cc1 (stereo in doubt) [Example 45, N-{4-[3-(4-Cyclopentyloxy-pyrimidin-2-ylamino)-pyrrolidine-1-carbonyl]-phenyl}-acrylamide]"
2,1000 to 10000 nM,"C=CC(=O)Nc1ccc(C(=O)N2CC[C@@H](Nc3nccc(Oc4cnn(C)c4)n3)C2)cc1 (stereo in doubt) [Example 46, N-(4-{3-[4-(1-Methyl-1H-pyrazol-4-yloxy)-pyrimidin-2-ylamino]-pyrrolidine-1-carbonyl}-phenyl)-acrylamide]"
3,100 to 1000 nM,"C=CC(=O)Nc1ccc(C(=O)N2CC[C@@H](Nc3nccc(-c4cncs4)n3)C2)cc1 (stereo in doubt) [Example 48, N-{4-[3-(4-Thiazol-5-yl-pyrimidin-2-ylamino)-pyrrolidine-1-carbonyl]-phenyl}-acrylamide]"
4,100 to 1000 nM,"C=CC(=O)Nc1ccc(C(=O)N2CC[C@@H](Nc3ncc(Cl)c(OC)n3)C2)cc1-c1cnn(C)c1 [Example 4, (R)-N-(4-(3-((5-chloro-4-methoxypyrimidin-2-yl)amino)pyrrolidine-1-carbonyl)-2-(1-methyl-1H-pyrazol-4-yl)phenyl)acrylamide]"
5,100 to 1000 nM,"C=CC(=O)Nc1ccc(C(=O)N2CC[C@@H](Nc3ncc(Cl)cn3)C2)cc1-c1cnn(C)c1 [Example 12, (R)—N-(4-(3-((5-chloropyrimidin-2-yl)amino)pyrrolidine-1-carbonyl)-2-(1-methyl-1H-pyrazol-4-yl)phenyl)acrylamide]"
6,100 to 1000 nM,"CCC(=O)Nc1ccc(C(=O)N2CC[C@@H](Nc3ncc(Cl)c(OC4CC4)n3)C2)cc1 [Example 15, (R)—N-(4-(3-((5-chloro-4-cyclopropoxypyrimidin-2-yl)amino)pyrrolidine-1-carbonyl)phenyl)propionamide]"
7,1000 to 10000 nM,"CCC(=O)Nc1ccc(C(=O)N2CC[C@@H](Nc3ncc(C)c(OC4CC4)n3)C2)cc1 [Example 16, (R)—N-(4-(3-((4-cyclopropoxy-5-methylpyrimidin-2-yl)amino)pyrrolidine-1-carbonyl)phenyl)propionamide]"
8,< 100 nM,"C=CC(=O)Nc1ccc(C(=O)N2CC[C@@H](Nc3ncc(Cl)c(OC4CC4)n3)C2)cc1 [Example 21, (R)—N-(4-(3-((5-chloro-4-cyclopropoxypyrimidin-2-yl)amino)pyrrolidine-1-carbonyl)phenyl)acrylamide]"
9,100 to 1000 nM,"C=CC(=O)Nc1ccc(C(=O)N2CC[C@@H](Nc3ncc(C)c(OC4CC4)n3)C2)cc1 [Example 22, (R)—N-(4-(3-((4-cyclopropoxy-5-methylpyrimidin-2-yl)amino)pyrrolidine-1-carbonyl)phenyl)acrylamide]"
10,100 to 1000 nM,"C=CC(=O)Nc1ccc(C(=O)N2CC[C@@H](Nc3ncc(F)c(OC4CC4)n3)C2)cc1 [Example 23, (R)—N-(4-(3-((4-cyclopropoxy-5-fluoropyrimidin-2-yl)amino)pyrrolidine-1-carbonyl)phenyl)acrylamide]"
11,< 100 nM,"C=CC(=O)Nc1ccc(C(=O)N2CC[C@@H](Nc3ncc(Cl)c(OCC(F)(F)F)n3)C2)cc1 [Example 24, (R)—N-(4-(3-((5-chloro-4-(2,2,2-trifluoroethoxy)pyrimidin-2-yl)amino)pyrrolidine-1-carbonyl)phenyl)acrylamide]"
